# Measured values as given in PubChem BioAssay AID179 (DTP/NCI, 2004).
# Calls of active or inactive are those of the source.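 How the source made its calls: active means compounds giving half or more protection of infected cells from virus-caused growth loss, again on retest; inactive means the rest.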
# Tested on: CEM cells HIV-1 protection, formazan growth assay
# Assay: NCI AIDS Antiviral Assay
# Conditions: for IC50: measured here: growth of uninfected CEM cells
# Outline: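 Category rules: moderately active means at least 50% protection on retest, and confirmed active means 100% protection reproducibly. The underlying data came from a formazan growth assay in HIV-1-infected CEM cells.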
Structure (SMILES),EC50 [µM],IC50 [µM],outcome
O=C(Nc1cccc([N+](=O)[O-])c1)/C(=N\NC(=O)c1ccncc1)c1nc2ccc([N+](=O)[O-])cc2[nH]c1=O,> 135,47.9,
CCOC(=O)/C(F)=C/c1ccc(C#N)cc1,> 33.1,> 33.1,
CCOC(=O)N1C=NC23C(c4ccccc4)C(c4ccccc4)C12C(=O)N(C)C(=O)N3C (configuration not stated),> 22.9,> 22.9,
O=C1C(/C=C/c2ccc(Cl)cc2)=NNC2N1N=C1NC(=O)C3(NN12)c1ccccc1-c1ccccc13 (configuration not stated),> 200,132,
CN1CCN(c2[nH]c(=O)n(Cc3ccccc3)c(=S)c2C#N)CC1,> 200,> 200,
CN1C(=O)N/C(=C\c2ccc(S(=O)(=O)N/N=C/c3ccccc3)cc2)C1=O,> 200,5.25,
Cn1c2ccccc2c2nnc(NCCCCO)nc21,> 200,> 200,
COC(=O)C1(O)CC(=O)CCC1c1ccc(OC)cc1 (configuration not stated),> 275,> 275,
Cc1cc([N+](=O)[O-])c(S(=O)(=O)c2ccccc2)c([N+](=O)[O-])c1,> 22.4,3.63,
CC1OC(c2ccc3c(c2O)C(=O)C2=C(C3=O)[C@H]3OC(=O)C[C@H]3O[C@@H]2C)CC(N(C)C)C1O (some centres not stated),> 107,0.0537,
CN(/N=C\c1ccc2ccccc2c1)C1=NCCCN1,> 200,10,
COc1cccc(/C=N/NC(=O)c2ccccc2[O-])c1[O-].[OH3+].[Pd+2],> 200,1.26,
COc1cc2c(cc1OC)C(Cl)C(c1ccc(Br)cc1)=C2Cl (configuration not stated),,,inactive
O=c1[nH]nc(-c2ccccc2)n1-c1ccncc1,> 200,> 200,
COc1cc2c(cc1Oc1c(Oc3c(O)c(OC)cc4c3C(CC(C)C)N(C)CC4)c(OC)cc3c1C(CC(C)C)N(C)CC3)C(CC(C)C)N(C)CC2 (configuration not stated),,,inactive
CC1CN=C(Cc2ccc(NC(=O)c3ccc(C(=O)Nc4ccc(CC5=NCC(C)N5)cc4)cc3)cc2)N1 (configuration not stated),> 200,110,
COC(=O)CCC(NC(=O)OC(C)(C)C)C(=O)NC(Cc1ccc(NC(=O)CCCC(C)=O)cc1)C(=O)NC(CCC(=O)OC)C(=O)OC (configuration not stated),> 100,> 100,
CC(C)c1cccc(C(C)C)c1NC(=O)C(=O)C(C(=O)c1ccccc1-c1ccccc1)C1OC(=O)c2ccccc21 (configuration not stated),> 64.6,25.1,
Cc1cc(=O)oc2cc(SC(=O)N(C)C)ccc12,> 200,> 200,
Nc1cccc(S(=O)(=O)NCC(=O)O)c1,,,inactive
N#CC(c1ccccc1)N(CCc1ccccc1)C(=O)c1ccccc1 (configuration not stated),> 126,> 126,
COc1ccc(C[C@H]2COC(=O)[C@@H]2Cc2cccc(Br)c2)cc1OC,> 200,31.6,

Structure (SMILES),EC50 [µM],IC50 [µM],outcome
CCOC(OC1=C(C#N)CCCC1)C(CC)[Se]c1ccccc1[N+](=O)[O-] (configuration not stated),> 23.4,> 23.4,
COc1ccccc1N1C(=O)/C(=C\c2cc(OC)c(OC)c(OC)c2)S(=O)(=O)C1c1ccccc1 (configuration not stated),> 200,38,
S=c1cn[nH]c2ccccc12,> 661,170,
C=C(c1cc(Br)c(OC)c(C(=O)OC)c1)c1cc(Br)c(OC)c(C(=O)OC)c1,> 100,> 100,
Nc1ncnc2c1nnn2C1CCC(CP(=O)(O)O)C1 (configuration not stated),> 200,> 200,
COc1ccc2nc3c([N+](=O)[O-])ccc4c3c(c2c1)N=CN4CCN(C)C,> 100,1.02,
CCC1c2ccc3cc(OC)ccc3c2CCC1(C)C(=O)O (configuration not stated),,,inactive
O=S(=O)(O)c1ccc(Nc2ccnc3ccccc23)cc1,> 200,> 200,
COc1cccc(/C=N/[N-]C(=O)c2ccncc2)c1[O-].[Cu+2].[OH3+],> 10.7,> 10.7,
O=C(Nc1cccc([N+](=O)[O-])c1)OCc1ccc2c(c1)OCO2,,,inactive
CCOc1ccc(NC2=CC(=O)C(=O)c3ccccc32)cc1,> 9.55,> 9.55,
COc1ccc(-n2c(N)c(C#N)[nH]c2=O)cc1,> 200,> 200,
COc1cccc(CC2NCCc3c2[nH]c2ccccc32)c1 (configuration not stated),> 251,46.8,
CC(=O)Nc1ccc(C(=O)NN2C(=O)CSC2c2ccc([N+](=O)[O-])cc2)cc1 (configuration not stated),> 25.1,> 25.1,
O=C(O)c1cc(O)c2c(c1)C([C@@H]1c3cccc(O)c3C(=O)c3c(O)cc(C(=O)O)cc31)c1cccc(O)c1C2=O (some centres not stated),> 200,31.6,
O=C(CCCC[n+]1ccccc1)Sc1ccccc1C(=O)Nc1ccc(S(=O)(=O)Nc2ccnn2-c2ccccc2)cc1,6.17,35.5,
Nc1ccn(C2CC(F)C(CO)O2)c(=O)n1 (configuration not stated),0.148,427,
CCOC(=N)CCCSSc1ccc(N=[N+]=[N-])cc1,> 200,25.7,
CC(=O)Nc1ccc2c(C(=O)O)c(C)c(=O)[nH]c2n1,> 200,112,
CCN(CC)c1ccc(NC(=S)NN(C)C)cc1,> 200,52.5,
O=C1Cc2cccc(=O)c(O)c2C(=O)O1,> 1200,282,
C[C@]12CCC[C@H](OC=O)C1(O)C[C@H](C(=O)O)CC2 (some centres not stated),,,inactive

Structure (SMILES),EC50 [µM],IC50 [µM],outcome
Cn1c(=O)c2sc3cc4c(cc3c2c2ccccc21)sc1c(=O)n(C)c2ccccc2c14,> 100,61.7,
OCC(O)C(O)c1nn(-c2ccccc2)c2nc3cc(Cl)c(Cl)cc3nc12 (configuration not stated),,,inactive
Cc1cccc(CC(Cc2c(C)cccc2C(=O)O)C(=O)O)c1 (configuration not stated),> 200,> 200,
Cc1cc(Cl)ccc1N=NC(=O)NNc1ccc(Cl)cc1C,> 200,52.5,
CCOP(=O)(OCC)C(F)(F)Cc1cnc(C)c2c1COC(C)(C)O2,> 200,> 200,
CCOC(=O)C1=NN(c2ccccc2)C(=O)/C1=C\n1c(=S)sc2ccccc21,> 100,51.3,
C=CCNc1nc2c(s1)C(=O)c1ccccc1C2=O,> 13.8,8.32,
Cc1ccc2c(c1)NC(=O)CC(c1ccccc1)=N2,> 200,115,
Oc1c(Cl)ccc2cccnc12,> 20,0.676,
COc1ccc(-c2c(-c3ccccc3)c(C)c3ccccn23)cc1,> 200,42.7,
O=C1C(=O)N(c2cc(Cl)ccc2Cl)C(=O)C(=O)C1c1nc2ccccc2s1,,,inactive
Cc1nc2c(N)ncnc2o1,> 9.55,> 9.55,
O=Cc1cc2c(cc1-c1cc3c(cc1C=O)OCO3)OCO2,> 107,> 107,
CC(=O)C(=Cc1ccc(N(C)C)cc1)C(C)=O,> 562,112,
O=C1Sc2ccccc2C(=O)N2C1CSC2c1ccccc1 (configuration not stated),> 200,> 200,
CC1(C)Oc2ccc(C3=NO[C@@H]4C(=O)N(c5ccc(Cc6ccc(N7C(=O)[C@H]8C(c9ccc%10c(c9)OC(C)(C)O%10)=NO[C@H]8C7=O)cc6)cc5)C(=O)[C@H]34)cc2O1,> 91.2,> 91.2,
COc1ccc(C2=C(OC(=O)N(C)C)c3cccn3-c3cc(Cl)ccc3S2)cc1,> 100,87.1,
[C-]#[O+].[C-]#[O+].[C-]#[O+].[Cr].c1ccc(P(CC[PH+](CC[PH+](CC[PH+](c2ccccc2)c2ccccc2)c2ccccc2)c2ccccc2)c2ccccc2)cc1 (configuration not stated),> 4.68,> 4.68,
CC1(C)N([O-])[N+](=O)C1(C)Br (configuration not stated),> 200,> 200,
O=C1CN(CCCO)CC(=O)N2Cc3ccccc3CN12,> 200,> 200,
COc1cc(/C=C2\CN(C)CC3=C2NC(=S)NC3c2cc(OC)c(OC)c(OC)c2)cc(OC)c1OC (configuration not stated),> 200,38.9,
COc1csc([C@H]2CCC3[C@@H]4CC=C5C[C@@H](OC(=O)CCC(=O)O)CC[C@]5(C)C4CC[C@@]32C)n1 (some centres not stated),> 51.3,32.4,

Structure (SMILES),EC50 [µM],IC50 [µM],outcome
N#CC(/C(CCCC(=O)Nc1cccc([N+](=O)[O-])c1)=N\NC(=O)c1c(O)ccc2ccccc12)c1nc2ccccc2s1 (configuration not stated),,,inactive
C=CCCC[P+](c1ccccc1)(c1ccccc1)c1ccccc1,> 200,1.15,
CS(=O)(=O)N1CC(CCl)c2ccc(S)cc21 (configuration not stated),,,inactive
COC(=O)C(CC1CC(OC(C)=O)c2[nH]c3ccccc3c2CCN(C(C)=O)C1)C(=O)OC (configuration not stated),> 135,> 135,
Oc1c([Si](c2ccccc2)(c2ccccc2)c2ccccc2)cc2ccccc2c1-c1c(O)c([Si](c2ccccc2)(c2ccccc2)c2ccccc2)cc2ccccc12,> 50.1,> 50.1,
Cc1nc(C(N)=O)c(N)n1CCN1CCN(C(=O)CCCCCCCCCCNC2N=CNc3nc[nH]c32)CC1 (configuration not stated),,,inactive
O=C1N[C@@H]2CCCC[C@@H]2C12CCCCC2,,,inactive
CN1CCN(CC(=O)N2CCCn3c2nc2ccccc2c3=O)CC1,> 200,> 200,
CCNC(=O)c1cc(NC(=O)c2ccc(C(=O)Nc3cc(C(=O)NCC)cc(C4=NCCN4)c3)cc2)cc(C2=NCCN2)c1,> 200,87.1,
CCOC(=O)c1nc2ccccc2nc1Nc1ccc(Cl)c(Cl)c1,151,> 200,
Cc1ccnc(SC(F)(F)c2nc3ccccc3o2)n1,0.263,2,
C/C(CCn1[nH]c(=O)ccc1=O)=N\NC(=O)C(N)=O,> 676,> 676,
O=CN/C=C/c1ccccc1,> 200,> 200,
COc1cc(CNc2nc3ccccc3nc2-c2cccs2)cc(OC)c1OC,> 200,14.8,
Cc1ccc([N+](=O)[O-])c2c(NCCC[N+](C)(C)[O-])c3ccccc3nc12,> 2,0.316,
Cc1cn(C2CC(/[N+]([O-])=N\Nc3ccc([N+](=O)[O-])cc3)C(CO)O2)c(=O)[nH]c1=O (configuration not stated),> 200,,
C=CCN=C1N=C(CC(=O)OCC)CS1,,,inactive
COC(=O)/C=C(/CNC(=O)OCc1ccccc1)c1ccccc1,,,inactive
CCCCCCCCCCCCSS(=O)(=O)c1ccc(C)cc1,> 20.4,13.8,
C/C(N)=C\c1nc(=O)ccs1,> 178,129,
